Results from patent publication US12492208B2, “Crystal of pyrimidine compound” (TAIHO PHARMACEUTICAL CO., LTD., priority 2020, dated 2025).

Legend:
[1] = test system: NCI-N87 cells; experiment: Growth inhibitory activity against HER2 expressing cell line (NCI-N87); format: cell-based; settings: Homo sapiens, NCI-N87, 72 h; 3 days, CellTiter-Glo 2.0
Protocol: NCI-N87 cells as a HER2 overexpressing human stomach cancer cell line (American Type Culture Collection, Cat No. ATCC (registered trademark) CRL-5822) were suspended in an RPMI1640 medium (Wako Pure Chemical Industries, Ltd.) supplemented with 10% fetal bovine serum. Subsequently, the cell suspension was seeded in each well of a 96-well flat-bottom microplate, and was then cultured in a 5% carbon dioxide gas-containing culture vessel at 37° C. for 1 day. Thereafter, the compound (I) obtained according to the method in Synthesis Example 1 was dissolved in DMSO, and the compound was diluted to 1000 times the final concentration in DMSO. The compound (I) in the DMSO solution was diluted with the medium used in the suspension of the cells, and the obtained solution was then added to each well of the culture plate, so that the final concentration of DMSO became 0.1%. Regarding a control well, DMSO was diluted with the medium used in the suspension of the cells, and the obtained solution was then added to each well of the culture plate, so that the final concentration of DMSO became 0.1%. […] After completion of the culture for 3 days in the presence of the compound, the cells were counted using CellTiter-Glo 2.0 (manufactured by Promega) in accordance with the protocols recommended by Promega. The growth inhibition percentage was calculated according to the following equation. […]

[2] = test system: Ba/F3-HER2insYVMA cells; experiment: Growth inhibitory activity against HER2 exon 20 insertion mutant expressing cell line; format: cell-based; settings: Mus musculus, 72 h, 3 days, CellTiter-Glo 2.0, read-out: HER2ex20insYVMA cell growth inhibitory activity IC50 value
Protocol: Growth inhibitory activity against the HER2 exon 20 insertion mutant was measured using Ba/F3 cells that were a mouse B lymphocyte precursor cell line, into which a human HER2 exon 20 insertion mutant gene had been introduced. The Ba/F3 cells were maintained in an RPMI-1640 medium (Thermo Fisher Scientific) supplemented with 10% fetal bovine serum (FBS), 100 U/mL penicillin, 100 μg/mL streptomycin (Thermo Fisher Scientific) and 1 ng/mL mouse interleukin-3 (mIL-3) (CST).
Upon evaluation of cell growth inhibitory activity, the Ba/F3-HER2insYVMA cells were suspended in an RPMI-1640 medium supplemented with 10% FBS, 100 U/mL penicillin, and 100 μg/mL streptomycin. The cell suspension was seeded in each well of a 96-well flat-bottom microplate, and was then cultured in a 5% carbon dioxide gas-containing culture vessel at 37° C. for 1 day. The compound (I) obtained according to the method in Synthesis Example 1 was dissolved in DMSO, and was then diluted with DMSO or the medium used in the suspension of the cells. The obtained solution was then added to each well of the culture plate, so that the final concentration of DMSO became 0.2%. […] After completion of the culture for 3 days in the presence of the compound, the cells were counted using CellTiter-Glo 2.0 (manufactured by Promega), and the growth inhibition percentage was then calculated according to the following equation. […]

[3] = test system: Luciferase gene-introduced HER2 expressing cell line (NCI-N87-Luc); experiment: Antitumor effect confirmation test (in vivo) on direct brain transplantation models; set-up: species or system nude mouse (BALB/cAJcl-nu/nu); settings: 25 mg/kg/day oral, 21 days
Protocol: In order to confirm the antitumor effects of a test compound on direct brain transplantation models, NCI-N87-Luc, which was obtained by introducing a luciferase gene into NCI-N87 that was a human stomach cancer tumor cell line purchased from American Type Culture Collection, was used. The NCI-N87-Luc was added into a 10% fetal bovine serum (FBS)-containing RPMI-1640 medium (supplemented with 4.5 g/L glucose, 10 mM HEPES, and 1 mM sodium pyruvate) (Wako Pure Chemical Industries, Ltd.), and this cell line was then cultured in a 5% CO2 incubator at 37° C.
The NCI-N87-Luc cells were re-suspended in PBS in a concentration of 6.25×10^7 cells/mL. […]
As a reference of the amount of brain tumor, approximately 3 weeks after the transplantation, Total Flux (Photon/sec) was measured in all of the survival cases, using IVIS (PerkinElmer, Inc., model: Lumina II). […]
The value obtained by logarithmic transformation (Log 10) of the total flux on Day 22 in each group was analyzed by a significance test. […] A body weight change percentage (Body weight change; BWCn) from the body weight on the n^th day (BWn) was calculated according to the following equation: BWCn (%)=[(body weight on n^th day)−(body weight on grouping day)]/[(body weight on grouping day)]×100.

IC50 [2]: 29 nM
SMILES: C=CC(=O)N1C[C@H](n2c(C#CC3CC3)c(C(=O)N[C@H](C)c3ccccc3)c3c(N)ncnc32)C[C@@H]1C [compound (I), 7-((3R,5S)-1-acryloyl-5-methylpyrrolidin-3-yl)-4-amino-6-(cyclopropylethynyl)-N—((R)-1-phenylethyl)-7H-pyrrolo[2,3-d]pyrimidine-5-carboxamide]
IC50 [1]: 9.9 nM | body weight reduction of −20% or more ([3]; all mice): not observed | Log 10 of the total flux on Day 22 versus control group ([3]; once a day, significance level (both sides) 5%): statistically significantly lower
